In brackets after ≈: the same amount, converted by molar mass. Entries after “also recorded” stand apart in the source; their conditions may differ. Read-outs that look alike come from different tables or passages of the source. Where a SMILES comes first, the peptide text is derived from it.

The source of these data is patent US10597735B2, “Antibacterial and plasmid elimination agents” (priority 2006, dated 2020).

In experiment [1] the target is T1, ClpXP (Escherichia coli, UniProt P0A6G7+P0A6H1). The experiment can be described thus: biochemical. Particulars: for mode of inhibition of GFP-tag degradation: SspB present; for inhibition of ClpXP proteolysis of GFP-tag in vitro: at the concentrations tested. Type of experiment: biochemical, E. coli. On the procedure: (§1) In vitro proteolysis assays: Proteolysis of GFP-tag was performed using a continuous fluorescence assay essentially as previously described (Levchenko et al. 2000, Science 289: 2354-2356). Briefly, loss of GFP fluorescence was monitored at 507 nm after excitation at 395 nm at 30° C. using a Hitachi F-2000 Fluorescence Spectrophotometer in buffer R (25 mM HEPES-KOH (pH 7.6), 5 mM MgCl2, 50 mM KCl, 0.032% NP-40, 10% glycerol, and an ATP regeneration system containing 4 mM ATP (pH 7), 16 mM creatine phosphate and 0.32 mg/ml creatine kinase). Typically, reactions contained […], 0.3 μM ClpP14, and equimolar concentrations (0.2 μM-2.0 μM) GFP-tag and SspB. Degradation of GFP-tag protein was confirmed by SDS-PAGE assays. To examine inhibition of GFP-tag proteolysis, peptides were incubated with ClpXP in reaction buffer for 5 min prior to the addition of GFP-tag. Plots of fluorescence versus time were fit with a single exponential function to determine the initial rate of proteolysis. Kinetic parameters were estimated using Eadie-Hofstee plots.
Proteolysis of GFP-tag in the presence of ClpXP and SspB was monitored by loss of GFP fluorescence in a continuous fluorometric assay. In the absence of cyclic peptide, GFP-tag was degraded with kinetic parameters kcat=[…], KM=0.74±0.04 μM. […] Likewise, no degradation was observed when ClpX or ClpP were omitted from the reaction.

Experiment [2] deals with C. crescentus. It counts as cell-based, Caulobacter crescentus. The procedure:
Antibacterial activity: The peptides recovered from the selection were tested for antibacterial activity by incubating a 1:1,000 diluted saturated culture with the peptide overnight at room temperature. For each peptide a series of concentrations were tested. The mix was then plated, and the colonies were counted after a period incubation at 30° for C. crescentus or 37° C. for B. subtilis. For C. crescentus, PYE liquid media were incubated overnight at 30° C. at 250 rpm, and PYE plates were incubated for 3 days at 30° C. For B. subtilis, LB liquid media and plates were incubated overnight at 37° C. […]
Antibacterial activity of cyclic peptide inhibitors: Because ClpXP is essential in C. crescentus, we examined whether the inhibitory peptides have any effect when added exogenously to growing cultures. […] ClpXP is not essential in Bacillus subtilis, but mutants lacking ClpXP activity have growth and sporulation defects. […] No killing of E. coli or the related γ-proteobacteria Shigella flexneri and Vibrio cholera was observed. It remains to be determined if the selected cyclic peptides are effective against pathogenic bacterial that require the tmRNA-ClpXP pathway.

The target in experiment [3] is T1, ClpXP. The experiment can be described thus: ClpXP degradation of λO protein (Example 1). It counts as biochemical, E. coli. The conditions noted are these: concentrations near or 10-fold above the KI for GFP-tag. The procedure:
The differing effects of SspB on inhibition indicate that inhibitors for two different steps in the ClpXP degradation pathway were obtained from the genetic screen. To confirm the different specificities of these two inhibitors, the effects on ClpXP degradation of a substrate unrelated to tmRNA tagged proteins was assayed. Because ClpXP can recognize at least 5 different protein sequences as substrate determinants, it has been proposed that there are several substrate binding sites on the protease. Inhibitors that block one site of interaction are expected to affect degradation of only the substrates that bind at that site. Conversely, inhibitors that block catalysis or obstruct a binding site required by all substrates should affect degradation of any ClpXP substrate.

Experiment [4] has as its target T1, ClpXP. The experiment can be described thus: ClpXP degradation of GFP-tag in the absence of SspB (Examples 1-2). Type of experiment: biochemical, E. coli. On the procedure:
ClpXP Proteolysis: PD buffer contained 25 mM HEPES-KOH (pH 7.6), 5 mM KCl, 5 mM MgCl2, 0.032% NP-40, 5 mM ATP, and 10% glycerol. The ATP regenerating system consisted of 8 mM creatine phosphate and 0.16 mg/ml creatine kinase. Inhibition experiments were performed using a Hitachi F-2000 Fluorescence Spectrophotometer. The rate of GFP-ssrA degradation was monitored at 30° C. for 5 minutes by the loss of fluorescence (excitation 488 nm; emission 507 nm). Competition experiments with increasing concentrations of peptide were performed using GFP-ssrA (0.2 μM), ClpX6 (0.3 ArM), ClpP14 (0.8 μM), and SspB2 (0.3 μM) in PD buffer plus 200 mM KCl and ATP regenerating system. Curve fitting for the competitive inhibition assays were performed using the Scientist program (MicroMath Scientific Software, Inc.).
A priori, there are several steps in the degradation pathway that could be inhibited by the selected cyclic peptides: binding of the substrate-SspB complex to ClpXP, ATPase activity of ClpX, and hydrolysis of the peptide bond by ClpP. Molecules that block the binding of substrate to SspB should not be inhibitors of proteolysis by ClpXP, because ClpXP will degrade tmRNA-tagged substrates in the absence of SspB. To determine if the inhibitors act through SspB, the kinetic assays were repeated in the absence of this proteolytic adaptor.

Experiment [5] deals with C. crescentus. It counts as cell-based, Caulobacter crescentus. The procedure: Antibacterial activity assays: To measure the effects of peptides on bacterial growth, cultures of C. crescentus were diluted to OD600=0.001, peptide was added at various concentrations, the cultures were incubated at 30° C. for 14 h, and the MIC was determined as the lowest concentration of peptide that prevented growth. To determine the MBC, each culture was diluted 1:100 in PYE and 10 μl of the diluted culture was spread onto PYE agar plates, incubated at 30° C. overnight, and the number of colonies on each plate was counted. The MBC was assigned as the concentration of peptide that reduced the number of colonies by 99.9% compared to cultures with no inhibitor.
This is another data set of the same source.

Experiment [6] concerns the target T1, ClpXP. As to the kind of experiment: Peptidase activity of ClpXP against IXP1, reverse-phase HPLC. It counts as biochemical, E. coli. Particulars: 60 min, no GFP-tag, HPLC peak area. The procedure:
Peptidase activity against IXP1 was assayed by incubating 200 μM IXP1 with 0.1 μM ClpX6, 0.3 μM ClpP14 and the ATP regeneration system in buffer R at 37° C. Sample were taken after 0, 5, and 60 min, and
separated by reverse-phase HPLC using a Varian Microsorb-MV C18 column developed in a gradient from 0.1% trifluoroacetic acid in water to 0.1% trifluoroacetic acid in acetonitrile. UV absorbance at 280 nm was monitored and the peak corresponding to the IXP1 cyclic peptide was determined by comparison to reactions containing only cyclic IXP1 or linear IXP1. The loss of cyclic IXP1 was determined by integrating the area under the cyclic IXP1 peak.

The subject of experiment [7] is GFP-tag reporter. As to the kind of experiment: GFP-tag reporter fluorescence in cells expressing SGW+5 SICLOPPS clones, epifluorescence microscopy (Example 1). It counts as cell-based, E. coli. The text has this:
Clonal populations are obtained by spotting the cells with high fluorescence on agar plates, and cells from each colony are screened by epi-fluorescence microscopy for fluorescence intensity. SICLOPPS plasmids from clones that pass the microscopy screen were isolated and sequenced to identify the cyclic peptide that is produced in that clone.
A SICLOPPS library was constructed in which the cyclic peptide contains three constant amino acids, SGW, followed by five random amino acids encoded by NNS codons. This library was introduced into cells containing the GFP-tag reporter, and the expression of the reporter and cyclic peptide were induced. Approximately 690,000 cells were sorted by FACS and the brightest 50 were isolated. These 50 clones were grown individually in fresh medium, the expression of reporter and cyclic peptide was induced, and the culture was observed by epifluorescence microscopy. Two clones produced cultures in which nearly 100% of the cells were highly fluorescent.

In experiment [8] the target is ClpP (Escherichia coli, UniProt P0A6G7). As to the kind of experiment: ClpP peptidase assay with Suc-Leu-Tyr-AMC. The conditions noted are these: Suc-Leu-Tyr-AMC substrate. Type of experiment: biochemical, E. coli. The procedure:
ClpP peptidase activity was measured using the fluorogenic peptide Suc-Leu-Tyr-AMC. 0.1 μM ClpP was incubated with 0.5-1.0 mM Suc-Leu-Tyr-AMC and varying concentrations of IXP1 in buffer P at 37° C. and monitoring the fluorescence of AMC (excitation at 353 nm, emission at 442 nm).

Experiment [9] has as its system GFP-tag degradation by ClpXP. The experiment can be described thus: In vivo screen: GFP-tag reporter fluorescence in E. coli producing the cyclic peptide from a SICLOPPS plasmid, epifluorescence microscopy (Example 3). It counts as cell-based. The procedure:
Screen for inhibitors of the tmRNA pathway: E. coli BW7786 cells containing the GFP-tag reporter and the SICLOPPS library were grown in LB broth with 30 μg/ml chloramphenicol, 100 μg/ml ampicillin, and 0.0002% arabinose at 37° C. to OD600=0.3. IPTG was added to a final concentration of 1 mM, and the culture was grown for 3 hours. Cells were sorted by fluorescence activated cell sorting (FACS) using a Beckman Coulter Elite cell sorter with Autoclone to isolate cells with GFP fluorescence, and selected cells were deposited on agar plates for clonal growth. Cells from each colony were grown in liquid culture as described above and examined by epifluorescence microscopy. The fluorescence intensity and the number of cells with fluorescence above background were scored using ImagePro software (MediaCybernetics). SICLOPPS plasmid DNA was prepared from selected clones and the region encoding the cyclic peptide was sequenced. Peptide sequences were obtained from conceptual translation of the DNA sequences.
Approximately 0.014% of the population had fluorescence over the background level, and 96 of these cells were isolated for clonal growth and characterization. To eliminate any clones that resulted from sorting errors or spurious accumulation of GFP, cells from each colony were cultured and examined by epifluorescence microscopy.

The target in experiment [10] is ClpX (Escherichia coli, UniProt P0A6H1). As to the kind of experiment: ClpX ATPase assay. It counts as biochemical, E. coli. On the procedure: ATPase and peptidase assays: ClpX ATPase activity was measured by monitoring the increase in phosphate using a ternary hetero polyacid assay (Chen et al. 2003, Tsinghua Science and Technology 8: 422-427). 1 μM ClpX was incubated with or without 6 μM GFP-tag and varying concentrations of IXP1 in buffer P (4 mM ATP, 50 mM tris-HCl (pH 7.5), 100 mM NaCl, 100 mM KCl, 10 mM MgCl2, 2 mM DTT, and 10% glycerol) at 37° C. At each time point 10 μl was removed from the reaction, added to 265 μl 0.88 M nitric acid for 2 min, and 225 μl color developing solution (44.4 mM bismuth nitrate, 31.1 mM ammonium molybdate, 0.11% ascorbic acid) was added and the absorbance at 700 nm was determined. The rate of ATP hydrolysis was determined from plots of phosphate accumulation versus time.

Experiment [11] has as its target T1, ClpXP. As to the kind of experiment: In vitro proteolysis of GFP-tag by ClpXP without SspB (Example 3). It counts as biochemical, E. coli. The conditions noted are these: no SspB. On the procedure: as §1
In the in vitro and in vivo proteolysis reactions above, the proteolytic adaptor SspB binds GFP-tag and tethers it to ClpXP (Levchenko et al. 2000, Science 289: 2354-2356). In principle, IXP1 could act on the GFP-tag.cndot.ClpXP interaction or the SspB.cndot.ClpXP interaction. […]

T1 sequence (P0A6G7 15-207): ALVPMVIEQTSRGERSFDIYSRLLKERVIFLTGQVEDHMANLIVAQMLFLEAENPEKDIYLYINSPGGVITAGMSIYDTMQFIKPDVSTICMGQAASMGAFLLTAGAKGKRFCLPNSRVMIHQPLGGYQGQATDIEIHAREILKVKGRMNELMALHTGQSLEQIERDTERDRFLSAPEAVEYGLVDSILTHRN
T1 sequence (P0A6H1 whole entry): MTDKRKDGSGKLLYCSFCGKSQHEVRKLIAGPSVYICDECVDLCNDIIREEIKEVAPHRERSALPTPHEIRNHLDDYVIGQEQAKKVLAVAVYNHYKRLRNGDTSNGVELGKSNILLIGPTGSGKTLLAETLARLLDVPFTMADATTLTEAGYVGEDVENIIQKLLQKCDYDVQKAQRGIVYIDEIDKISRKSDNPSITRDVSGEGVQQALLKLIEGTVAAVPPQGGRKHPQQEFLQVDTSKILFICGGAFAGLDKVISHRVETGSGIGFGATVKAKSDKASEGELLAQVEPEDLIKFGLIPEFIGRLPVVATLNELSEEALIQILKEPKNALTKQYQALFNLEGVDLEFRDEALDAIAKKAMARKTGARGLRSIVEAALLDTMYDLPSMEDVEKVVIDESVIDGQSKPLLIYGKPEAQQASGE
Sequence of ClpX (P0A6H1 whole entry): as above
Sequence of ClpP (P0A6G7 15-207): as the sequence (P0A6G7 15-207) above

The MIC is the lowest concentration found to suppress growth. The term Ki denotes the equilibrium dissociation constant of an inhibitor or competing ligand from its target. A high value points to a looser hold on the target. Turning to `CC(C)C[C@@H]1NC(=O)[C@@H]2CCCN2C(=O)CNC(=O)[C@H](CCC(N)=O)NC(=O)[C@H](C(C)C)NC(=O)[C@H](CCCNC(=N)N)NC(=O)[C@H](Cc2c[nH]c3ccccc23)NC(=O)CNC(=O)[C@H](CO)NC1=O` [ICP2, SGWRVQGPL] (HELM PEPTIDE1{G.P.L.S.G.W.R.V.Q}$PEPTIDE1,PEPTIDE1,1:R1-9:R2$$$V2.0), in experiment [1], the “mode of inhibition of GFP-tag degradation” value is on record as “competitive inhibitors” and the “inhibition of ClpXP proteolysis of GFP-tag in vitro” value is “inhibited”. The MIC in experiment [2] stood at 62.2 µM (≈ 61 µg/mL). The “effect on degradation of λO protein by ClpXP” value in experiment [3] is “no effect”. In addition, the inhibition constant Ki in experiment [4] (GFP-tag degradation by ClpXP, no SspB) was > 1000 µM. The “inhibition of GFP-tag degradation by ClpXP in the absence of SspB” value in experiment [4] (no SspB) is listed as “did not inhibit”. The “KI in the absence of SspB, fold higher” value in [4] (no SspB versus +SspB) is recorded as “at least 10 fold”.
Usually MBC stands for the smallest concentration meeting the test's criterion for killing. A higher MBC goes with less potent killing. In [5], `N=C(N)NCCC[C@@H]1NC(=O)CNC(=O)[C@H](Cc2ccc(O)cc2)NC(=O)[C@H](Cc2c[nH]c3ccccc23)NC(=O)CNC(=O)[C@H](CO)NC(=O)[C@H](Cc2c[nH]cn2)NC(=O)[C@H](CCCNC(=N)N)NC1=O` [IXP1, SGWYGRRH] (HELM PEPTIDE1{G.R.R.H.S.G.W.Y}$PEPTIDE1,PEPTIDE1,1:R1-8:R2$$$V2.0) came in with an MBC of 279 ± 23 µM (≈ 279 µg/mL) and an MIC of 219 ± 42 µM (≈ 219 µg/mL). Moreover, the “amount of cyclic peptide after incubation with ClpXP” value in [6] is “did not change; also recorded: unchanged”. Also, in experiment [7], the “average fluorescent intensity relative to cultures expressing ICP1 or ICP2” value was “more than twice”. Also, the cells highly fluorescent in experiment [7] (induced culture) is listed as ~100%. Also, in experiment [8], the “decrease of ClpP peptidase activity” value is reported as “less than 2%”. Moreover, in [1], the “mode of inhibition of GFP-tag degradation” value is “uncompetitive inhibition” and the “inhibition of ClpXP proteolysis of GFP-tag in vitro” value is “reduced the rate”. In [9] (compared with filamentous ΔclpX strain), the cell morphology entry is listed as “slightly filamentous”. Besides, the “GFP-tag fluorescence / inhibition in vivo” value in experiment [9] (compared with ΔclpX strain) is “indistinguishable from the ΔclpX strain; also recorded: fluorescent cells”. Also, the “ClpX ATPase activity with GFP-tag included” value in [10] (with GFP-tag) was “no effect”. The “rate of ClpX ATP hydrolysis” value in experiment [10] (without GFP-tag, up to 200 μM IXP1) is given as “not inhibited”. In addition, in experiment [11], the “effect on GFP-tag degradation by ClpXP in the absence of SspB” value is given as “still inhibited”.
